Test results reported in DBAASP.
Values after ≈ are worked out from the molar mass of the structure shown. Each block holds one molecule with its values, some of them ahead of it.

Experiments:
Experiment in all cases: ≥ marks a high value that may be exact or a test limit, other limits are often not marked, values filed in µg/mL are converted to µM
[1] = system: Escherichia coli ATCC 25922
[2] = system: Pseudomonas aeruginosa ATCC 27853
[3] = system: Staphylococcus aureus ATCC 29213
Staphylococcus aureus = system: Staphylococcus aureus
Escherichia coli = system: Escherichia coli
[4] = system: Enterococcus faecalis ATCC 29212
[5] = system: Salmonella enterica subsp. enterica serovar Typhimurium ATCC 14028
Escherichia coli UB1005 = system: Escherichia coli UB1005
[6] = system: Pseudomonas aeruginosa PAO1
[7] = system: Staphylococcus aureus ATCC 25923
[8] = system: Staphylococcus epidermidis ATCC 12228
Pseudomonas aeruginosa = system: Pseudomonas aeruginosa

MIC [1]: 3.88 µM (≈ 8 µg/mL) | MIC [2]: 62 µM (≈ 128 µg/mL) | MIC [3]: 7.75 µM (≈ 16 µg/mL)
SMILES: CC(C)C[C@H](NC(=O)CNC(=O)[C@H](C)NC(=O)[C@H](CC(C)C)NC(=O)[C@H](CCCCN)NC(=O)[C@H](CCCCN)NC(=O)[C@H](C)NC(=O)[C@H](CC(C)C)NC(=O)CNC(=O)[C@H](C)NC(=O)[C@H](CC(C)C)NC(=O)[C@H](CCCCN)NC(=O)[C@H](CCCCN)NC(=O)[C@H](C)NC(=O)[C@H](CC(C)C)NC(=O)CNC(=O)[C@H](C)NC(=O)[C@H](CC(C)C)NC(=O)[C@@H](N)CCCCN)C(=O)N[C@@H](C)C(=O)N[C@@H](CCCCN)C(N)=O [KLAGLAKKLAGLAKKLAGLAK]

MIC [4]: > 200 µM | MIC [1]: > 200 µM | MIC [5]: > 200 µM
SMILES: CC[C@H](C)[C@H](NC(=O)[C@H](CCCCN)NC(=O)CNC(=O)CNC(=O)[C@H](CC(C)C)NC(=O)[C@H](CC(N)=O)NC(=O)[C@H](C)NC(=O)[C@H](C)NC(=O)[C@@H](N)CCC(=O)O)C(=O)N[C@@H](CC(C)C)C(=O)N[C@@H](CCC(=O)O)C(=O)N[C@@H](CCC(=O)O)C(=O)N[C@@H](CCCCN)C(=O)N[C@@H](CCCCN)C(=O)N[C@@H](CC(C)C)C(=O)N[C@@H](CO)C(=O)N[C@@H](CCCN=C(N)N)C(=O)N[C@@H](CC(C)C)C(=O)N1CCC[C@H]1C(=O)N1CCC[C@H]1C(=O)N[C@@H](CO)C(=O)N[C@@H](Cc1cnc[nH]1)C(=O)N[C@@H](CC(C)C)C(=O)O [EAANLGGKILEEKKLSRLPPSHL]

MIC [1]: 10 µM (≈ 27.7 µg/mL) | MIC [8]: 2.5 µM (≈ 6.92 µg/mL)
SMILES: CC[C@H](C)[C@H](NC(=O)CN)C(=O)N[C@@H](CCCCN)C(=O)N[C@@H](CCCCN)C(=O)N[C@@H](Cc1c[nH]c2ccccc12)C(=O)N[C@@H](CC(C)C)C(=O)N[C@@H](Cc1cnc[nH]1)C(=O)N[C@@H](CO)C(=O)N1CCC[C@H]1C(=O)N[C@@H](CCCCN)C(=O)N[C@@H](CCCCN)C(=O)N[C@@H](Cc1ccccc1)C(=O)N1CCC[C@H]1C(=O)N[C@@H](CCCCN)C(=O)N[C@@H](CCCCN)C(=O)N[C@@H](Cc1ccccc1)C(=O)N[C@H](C(=O)N[C@@H](CCCCN)C(=O)N[C@@H](CCCCN)C(=O)N[C@H](C(=O)N[C@@H](CCSC)C(=O)N[C@@H](CC(N)=O)C(=O)N[C@@H](CO)C(N)=O)[C@@H](C)CC)C(C)C [GIKKWLHSPKKFPKKFVKKIMNS]

MIC (Escherichia coli): 3.74 µM (≈ 8 µg/mL) | MIC (Pseudomonas aeruginosa): 15 µM (≈ 32 µg/mL) | MIC (Staphylococcus aureus): 3.74 µM (≈ 8 µg/mL)
SMILES: CC(C)C[C@H](NC(=O)CNC(=O)[C@H](CCCCN)NC(=O)[C@H](C)NC(=O)[C@H](CC(C)C)NC(=O)[C@H](CCCCN)NC(=O)[C@H](C)NC(=O)[C@H](CC(C)C)NC(=O)CNC(=O)[C@H](CCCCN)NC(=O)[C@H](C)NC(=O)[C@H](Cc1c[nH]c2ccccc12)NC(=O)[C@H](CCCCN)NC(=O)[C@H](C)NC(=O)[C@H](CC(C)C)NC(=O)CNC(=O)[C@H](CCCCN)NC(=O)[C@H](C)NC(=O)[C@H](CC(C)C)NC(=O)[C@@H](N)CCCCN)C(=O)N[C@@H](C)C(N)=O [KLAKGLAKWAKGLAKLAKGLA]

MIC [1]: 10.1 µM (≈ 15.9 µg/mL) | MIC [3]: 40.5 µM (≈ 63.9 µg/mL)
SMILES: CC[C@H](C)[C@H](NC(=O)[C@H](CC(=O)O)NC(=O)[C@H](CC(C)C)NC(=O)[C@@H](NC(=O)CN)C(C)C)C(=O)N[C@@H](CC(C)C)C(=O)N[C@@H](CCCCN)C(=O)NCC(=O)N[C@@H](C)C(=O)N[C@@H](C)C(=O)N[C@@H](CCCCN)C(=O)N[C@@H](CC(=O)O)C(=O)N[C@@H](CC(C)C)C(=O)N[C@@H](C)C(=O)NCC(=O)N[C@@H](Cc1cnc[nH]1)C(=O)O [GVLDILKGAAKDLAGH]

MIC (Pseudomonas aeruginosa): 5.13 µM (≈ 12.5 µg/mL)
SMILES: CC[C@H](C)[C@H](NC(=O)[C@H](Cc1ccccc1)NC(=O)[C@H](CO)NC(=O)[C@H](CCCCN)NC(=O)[C@H](Cc1c[nH]c2ccccc12)NC(=O)[C@@H](N)CCCCN)C(=O)N[C@@H](CC(N)=O)C(=O)N[C@@H](CCCCN)C(=O)N[C@@H](CC(C)C)C(=O)N[C@H](C(=O)N[C@@H](CO)C(=O)N[C@@H](CCCCN)C(=O)N[C@@H](Cc1ccccc1)C(=O)N[C@@H](CC(C)C)C(=O)N[C@@H](Cc1cnc[nH]1)C(=O)N[C@@H](CO)C(=O)N[C@@H](C)C(=O)N[C@@H](CCCCN)C(=O)N[C@@H](CCCCN)C(=O)N[C@@H](Cc1ccccc1)C(N)=O)[C@@H](C)O [KWKSFINKLTSKFLHSAKKF]

Further lines, the molecule ahead of its results:

SMILES: CC[C@H](C)[C@H](NC(=O)[C@H](C)NC(=O)[C@H](CO)NC(=O)[C@H](CC(C)C)NC(=O)[C@@H](N)Cc1ccccc1)C(=O)N[C@@H](C)C(=O)N[C@@H](CO)C(=O)N[C@@H](CCSC)C(=O)N[C@@H](CC(C)C)C(=O)NCC(=O)N[C@@H](CCCCN)C(=O)N[C@@H](Cc1ccccc1)C(=O)N[C@@H](CC(C)C)C(=O)O [FLSAIASMLGKFL]
MIC (Staphylococcus aureus): 200 µM (≈ 280 µg/mL)

SMILES: CC[C@H](C)[C@H](NC(=O)CNC(=O)[C@H](CO)NC(=O)[C@H](CC(C)C)NC(=O)[C@@H](NC(=O)CN)[C@@H](C)CC)C(=O)N[C@@H](CC(C)C)C(=O)NCC(=O)N[C@@H](CCSC)C(=O)NCC(=O)N[C@@H](CCCCN)C(=O)N[C@@H](CCCCN)C(=O)N[C@@H](CC(C)C)C(=O)N[C@H](C(=O)N[C@H]1CSSC[C@@H](C(=O)O)NC(=O)[C@H](CC(C)C)NC(=O)CNC(=O)[C@H](CO)NC(=O)[C@H](CC(C)C)NC(=O)CNC1=O)C(C)C [GILSGILGMGKKLVCGLSGLC]
MIC (Escherichia coli): 15 µM (≈ 30.3 µg/mL) | MIC (Staphylococcus aureus): 50 µM (≈ 101 µg/mL)

SMILES: CC(C)C[C@H](NC(=O)[C@H](Cc1ccc(O)cc1)NC(=O)[C@@H]1CCCN1C(=O)[C@@H]1CCCN1C(=O)[C@H](CCCCN)NC(=O)[C@@H]1CCCN1C(=O)[C@@H](N)C(C)C)C(=O)N1CCC[C@H]1C(=O)N[C@@H](CCCN=C(N)N)C(=O)N1CCC[C@H]1C(=O)N[C@@H](CCCN=C(N)N)C(=O)N1CCC[C@H]1C(=O)N1CCC[C@H]1C(=O)N[C@@H](CCCN=C(N)N)C(=O)N[C@@H](CCCN=C(N)N)C(=O)N[C@@H](CCCCN)C(=O)N[C@@H](Cc1ccc(O)cc1)C(=O)N[C@@H](CC(N)=O)C(=O)N[C@@H](Cc1cnc[nH]1)C(N)=O [VPKPPYLPRPRPPRRKYNH]
MIC (Escherichia coli UB1005): 2.11 µM (≈ 5 µg/mL) | MIC [6]: 27 µM (≈ 64 µg/mL) | MIC [7]: 3.38 µM (≈ 8 µg/mL)

SMILES: CC[C@H](C)[C@H](NC(=O)[C@H](CCCN=C(N)N)NC(=O)[C@H](CCCN=C(N)N)NC(=O)[C@@H](N)CCC(N)=O)C(=O)N[C@@H](CCCN=C(N)N)C(=O)N[C@H](C(=O)N[C@@H](CCCN=C(N)N)C(=O)N[C@@H](CC(C)C)C(=O)N[C@@H](CO)C(=O)N[C@@H](C)C(=O)O)C(C)C [QRRIRVRLSA]
MIC [1]: 12.8 µM (≈ 16 µg/mL) | MIC [2]: 51 µM (≈ 64 µg/mL) | MIC [3]: > 51 µM

SMILES: CC(C)C[C@H](NC(=O)[C@H](Cc1ccccc1)NC(=O)[C@H](CCCCN)NC(=O)[C@H](CO)NC(=O)[C@@H](NC(=O)[C@H](CC(C)C)NC(=O)[C@H](CCCCN)NC(=O)[C@H](CCCCN)NC(=O)[C@H](CCCCN)NC(=O)[C@H](Cc1ccccc1)NC(=O)[C@H](CO)NC(=O)[C@H](CCCCN)NC(=O)[C@H](Cc1c[nH]c2ccccc12)NC(=O)[C@@H](N)CCCCN)[C@@H](C)O)C(=O)N[C@@H](Cc1cnc[nH]1)C(=O)N[C@@H](CO)C(=O)N[C@@H](C)C(=O)N[C@@H](CCCCN)C(=O)N[C@@H](CCCCN)C(=O)N[C@@H](Cc1ccccc1)C(N)=O [KWKSFKKKLTSKFLHSAKKF]
MIC (Pseudomonas aeruginosa): 5.06 µM (≈ 12.5 µg/mL)

SMILES: CC(=O)N[C@@H](CCCCN)C(=O)N[C@@H](CC(C)C)C(=O)N[C@@H](CC(C)C)C(=O)N[C@@H](CCCCN)C(=O)N1CCC[C@H]1C(=O)N[C@@H](CC(C)C)C(=O)N[C@@H](CCCCN)C(=O)N[C@@H](CCCCN)C(=O)N[C@@H](CC(C)C)C(=O)N[C@@H](CC(C)C)C(=O)N[C@@H](CCCCN)C(=O)N[C@@H](CC(C)C)C(=O)N[C@@H](CC(C)C)C(=O)N[C@@H](CCCCN)C(N)=O [KLLKPLKKLLKLLK]
MIC [1]: 20 µM (≈ 34.3 µg/mL) | MIC [3]: 28.3 µM (≈ 48.6 µg/mL)

SMILES: CC[C@H](C)[C@H](NC(=O)[C@H](CCCCN)NC(=O)[C@H](CCCN=C(N)N)NC(=O)[C@@H](N)CCC(N)=O)C(=O)N[C@@H](CCCN=C(N)N)C(=O)N[C@H](C(=O)N[C@@H](CCCN=C(N)N)C(=O)N[C@@H](CC(C)C)C(=O)N[C@@H](CO)C(=O)N[C@@H](C)C(=O)O)C(C)C [QRKIRVRLSA]
MIC [1]: 1.63 µM (≈ 2 µg/mL) | MIC [2]: 3.26 µM (≈ 4 µg/mL) | MIC [3]: > 52.2 µM

SMILES: CC[C@H](C)[C@H](NC(=O)[C@@H](NC(=O)[C@H](CC(N)=O)NC(=O)[C@H](CC(C)C)NC(=O)[C@H](CCSC)NC(=O)[C@@H](NC(=O)[C@H](Cc1ccccc1)NC(=O)[C@H](Cc1ccccc1)NC(=O)[C@H](CC(N)=O)NC(=O)[C@H](CCCCN)NC(=O)[C@H](CC(C)C)NC(=O)[C@H](CC(N)=O)NC(=O)[C@H](CCCCN)NC(=O)[C@@H](NC(=O)[C@@H](NC(=O)[C@@H](NC(=O)[C@H](C)NC(=O)[C@@H](NC(=O)[C@H](CCCCN)NC(=O)[C@@H](N)CCCCN)[C@@H](C)CC)[C@@H](C)CC)[C@@H](C)CC)[C@@H](C)O)[C@@H](C)CC)[C@@H](C)CC)C(=O)O [KKIAIITKNLKNFFIMLNII]
MIC [6]: > 128 µM

SMILES: NCC(=O)N[C@@H](CCCN=C(N)N)C(=O)N[C@@H](CCCN=C(N)N)C(=O)N1CCC[C@H]1C(=O)N[C@@H](CCCN=C(N)N)C(=O)N1CCC[C@H]1C(=O)N[C@@H](CCCN=C(N)N)C(=O)N1CCC[C@H]1C(=O)N[C@@H](CCCN=C(N)N)C(=O)N1CCC[C@H]1C(N)=O [GRRPRPRPRP]
MIC [1]: > 160 µM | MIC [2]: > 160 µM | MIC [3]: > 160 µM
